The text below walks through data of paper PMC7565640 (Journal of Virology, 2020).

Data set [1] relates to SARS-CoV-2. The format is cell-based. The settings on record: read-out: IC50 (avg).
Data set [2] concerns Vero E6 cells. The settings on record: read-out: CC50 (avg); 3 days.
Data set [3] relates to SARS-CoV-2. The format is cell-based.
The subject of data set [4] is SARS-CoV-2. The format is cell-based. This is another data set of the same source.
Data set [5] relates to clathrin-mediated endocytosis. To be noted: cited from earlier work.
In data set [6] the test system is MERS-CoV spike. The settings on record: cited from earlier work.
The subject of data set [7] is SARS-CoV spike. To be noted: cited from earlier work.

Structures are written as SMILES. “And” between values parts separate entries of the source, which are not always exact repeats. Equal values may be shown once. Where a name gives a salt, the structure may show the parent alone.

What is called IC50 is the concentration that inhibits the measured activity by half. Regarding `CCN(CC)Cc1cc(Nc2ccnc3cc(Cl)ccc23)ccc1O` [Amodiaquine dihydrochloride dihydrate], in data set [1], the IC50 was 2.59 µM and 4.94 µM.
The term CC50 denotes the concentration that lowers cell viability or growth by half. For `CCN(CC)Cc1cc(Nc2ccnc3cc(Cl)ccc23)ccc1O` [Amodiaquine hydrochloride], the CC50 in data set [2] is more than 38.6 µM.
Regarding `CCN(CC)CCCC(C)Nc1ccnc2cc(Cl)ccc12` (centres unmarked) [Chloroquine phosphate], the “production of SARS-CoV-2 N and RdRp mRNA” value in data set [3] was “inhibit production”. The IC50 in data set [1] was 46.8 µM. In addition, in data set [4], the “infectious viral particle production of SARS-CoV-2 (TCID50)” value (from here on “infectious viral particle production”) is “can inhibit”.
In the case of `CN(C)CCCN1c2ccccc2Sc2ccc(Cl)cc21` [Chlorpromazine hydrochloride], the IC50 in data set [1] is 4.03 µM. For the same compound, in data set [4], the “infectious viral particle production” value is reported as “can inhibit”. In addition, the clathrin-mediated endocytosis entry in data set [5] was “inhibit”.
As to `O=C1NCN(c2ccccc2)C12CCN(CCCC(c1ccc(F)cc1)c1ccc(F)cc1)CC2` [Fluspirilene], in data set [1], the IC50 was 5.32 µM.
In the case of `CCN(CCO)CCCC(C)Nc1ccnc2cc(Cl)ccc12` (centres unmarked) [Hydroxychloroquine sulfate], the “production of SARS-CoV-2 N and RdRp mRNA” value in data set [3] was “inhibit production”. Also, the IC50 in data set [1] is 11.2 µM. Also, in data set [4], the “infectious viral particle production” value is “can inhibit”. In addition, the “time-of-addition: inhibitory activity on infectious-virus production” value in data set [4] (24 h) was “some reduction in inhibitory activity”.
With `Cc1ccc(NC(=O)c2ccc(CN3CCN(C)CC3)cc2)cc1Nc1nccc(-c2cccnc2)n1` [Imatinib mesylate], the MERS-CoV spike-mediated entry result in data set [6] is recorded as “inhibits”. For the same compound, the SARS-CoV spike-mediated entry entry in data set [7] is reported as “inhibits”.
As for `OC(c1cc(C(F)(F)F)nc2c(C(F)(F)F)cccc12)C1CCCCN1` (centres unmarked) [Mefloquine hydrochloride], the IC50 in data set [1] was 8.06 µM.
With `CC(CN1c2ccccc2Sc2ccccc21)N(C)C` (centres unmarked) [Promethazine hydrochloride], the IC50 in data set [1] came out at 10.4 µM.
For the compound `CC(C)N1CCN(c2ccc(OCC3COC(Cn4cncn4)(c4ccc(Cl)cc4Cl)O3)cc2)CC1` (centres unmarked) [Terconazole], in data set [1], the IC50 was determined as 16.1 µM.
In the case of `CCSc1ccc2c(c1)N(CCCN1CCN(C)CC1)c1ccccc1S2` [Thiethylperazine maleate], the IC50 in data set [1] came to 8.02 µM.
On to `CCN(CC)CCOc1ccc(C(O)(Cc2ccc(Cl)cc2)c2ccc(C)cc2)cc1` (centres unmarked) [Triparanol], for which the IC50 in data set [1] came out at 6.41 µM.
